Key:
[1] = Selectivity index, ratio of IC50 for rat L6 cells to IC50 for Trypanosoma brucei rhodesiense STIB 900 bloodstream forms; type: toxicity; conditions: read-out: Ratio IC50
[2] = system: Trypanosoma brucei rhodesiense; test: Antitrypanosomal activity against Trypanosoma brucei rhodesiense STIB 900 bloodstream forms after 72 hrs by alamar blue staining based fluorescence assay; type: functional, organism-based; conditions: STIB 900, 72 h
L6 = test: Cytotoxicity against rat L6 cells after 72 hrs by alamar blue staining based fluorescence assay; type: cell-based; conditions: L6, 72 h

With `C=C1C(=O)O[C@@H]2/C=C(/C)[C@@H]3C/C=C(/C[C@@H](OC(=O)/C(=C/CO)CO)[C@@H]12)C[C@@](O)(C(C)C)C(=O)O3` the selectivity ratio [1] was 4.1, the IC50 [2] was 0.9 µM and the IC50 (L6) was 3.8 µM.
Compound `C=C1C(=O)O[C@@H]2/C=C(/C)[C@@H](OC(C)=O)C/C=C(\C)C[C@@H](OC(=O)c3ccoc3)[C@@H]12` has a selectivity ratio [1] of 20.5, an IC50 [2] of 0.1 µM and an IC50 (L6) of 2.1 µM.
Work on `C=C1C(=O)O[C@@H]2/C=C(/C)[C@@H](O)C[C@H]3O[C@]3(C)C[C@@H](OC(=O)/C(=C/COC(=O)C(O)C(C)C)CO)[C@@H]12` (stereo not given in full) yielded a selectivity ratio [1] of 15.8, an IC50 [2] of 0.91 µM and an IC50 (L6) of 14.4 µM.
In the case of `C=C1C(=O)O[C@@H]2/C=C(/C)[C@@H](OC(C)=O)C[C@H]3O[C@]3(C)C[C@@H](OC(=O)/C(=C/CO)CO)[C@@H]12`, the selectivity ratio [1] is reported as 15.8, the IC50 [2] is reported as 0.92 µM and the IC50 (L6) is reported as 14.6 µM.
Work on `C=C1C(=O)O[C@@H]2/C=C(/C)[C@@H](OC(C)=O)C/C=C(\C)C[C@@H](OC(=O)C3=CC(O)OC3)[C@@H]12` (stereo not given in full) yielded a selectivity ratio [1] of 11.5, an IC50 [2] of 0.35 µM and an IC50 (L6) of 4.1 µM.
In the case of `C=C1C(=O)O[C@@H]2/C=C(/C)[C@@H](OC(C)=O)C/C=C(\C)C[C@@H](OC(=O)/C(=C\CO)CO)[C@@H]12`, the selectivity ratio [1] is reported as 31.1, the IC50 [2] is reported as 1.7 µM and the IC50 (L6) is reported as 54.6 µM.
`C=C1C(=O)O[C@@H]2/C=C(\C)[C@@H](O)C/C=C(\C)C[C@@H](OC(=O)/C(C)=C/CO)[C@@H]12` gave a selectivity ratio [1] of 9.6, an IC50 [2] of 5.4 µM and an IC50 (L6) of 51.7 µM.
In the case of `C=C1C(=O)O[C@@H]2/C=C(/C)[C@@H](OC(C)=O)C/C=C(\C)C[C@@H](OC(=O)/C(=C/CO)CO)[C@@H]12`, the selectivity ratio [1] is reported as 6.9, the IC50 [2] is reported as 1.1 µM and the IC50 (L6) is reported as 7.8 µM.
`C=C1C(=O)O[C@H]2[C@H]1[C@H](OC(=O)/C(=C/CO)CO)CC(=C)[C@@H]1CC(=O)C(C)[C@H]21` (stereo not given in full) showed a selectivity ratio [1] of 19.2, an IC50 [2] of 0.6 µM and an IC50 (L6) of 12.3 µM.
`C=C1C[C@@H](OC(=O)/C(=C/CO)CO)[C@H]2C(=C)C(=O)O[C@@H]2[C@H]2C(C)=C[C@@H](O)[C@@H]12` gave a selectivity ratio [1] of 5.9, an IC50 [2] of 7.3 µM and an IC50 (L6) of 42.8 µM.
`C=C1C(=O)O[C@@H]2/C=C(/C)[C@@H](OC(=O)C(O)C(C)C)C/C=C(\C)C[C@@H](OC(=O)/C(=C/CO)CO)[C@@H]12` (stereo not given in full) gave a selectivity ratio [1] of 13.4, an IC50 [2] of 0.82 µM and an IC50 (L6) of 11 µM.
For `C=C1C(=O)O[C@@H]2/C=C(/C)[C@@H](OC(C)=O)C/C=C(\C)C[C@@H](OC(=O)/C(C)=C/CO)[C@@H]12`, the selectivity ratio [1] was 4.6, the IC50 [2] was 1.7 µM and the IC50 (L6) was 7.94 µM.
`COc1cc(CCCO)cc(O)c1OC` showed a selectivity ratio [1] of 15.2, an IC50 [2] of 9.8 µM and an IC50 (L6) of 149 µM.
Compound `C=C1C(=O)O[C@@H]2/C=C(\C)[C@@H](O)C/C=C(\C)C[C@@H](OC(=O)/C(=C/COC(=O)C(O)C(C)C)CO)[C@@H]12` (stereo not given in full) has a selectivity ratio [1] of 13, an IC50 [2] of 2.6 µM and an IC50 (L6) of 34.1 µM.
Work on `C=C1C(=O)O[C@@H]2/C=C(\C)[C@@H](O)C/C=C(\C)C[C@@H](OC(=O)/C(=C/COC(=O)C(O)C(C)CC)CO)[C@@H]12` (stereo not given in full) yielded a selectivity ratio [1] of 10.5, an IC50 [2] of 4 µM and an IC50 (L6) of 42.3 µM.
Work on `C=C1C(=O)O[C@@H]2/C=C(/C)[C@@H](OC(=O)C(O)C(C)C)C/C=C(\C)C[C@@H](OC(=O)c3ccoc3)[C@@H]12` (stereo not given in full) yielded a selectivity ratio [1] of 29.7, an IC50 [2] of 0.13 µM and an IC50 (L6) of 3.9 µM.
For `C=C1C(=O)O[C@H]2[C@H]1[C@H](OC(=O)/C(=C/COC(=O)C(O)C(C)C)CO)C[C@]1(C)[C@@H]2[C@H](C)C(=O)C[C@H]1O` (stereo not given in full), the selectivity ratio [1] was 14.6, the IC50 [2] was 2.7 µM and the IC50 (L6) was 39.7 µM.
Work on `C=C1C(=O)O[C@@H]2C3O[C@]3(C)CC/C=C(\C)CC[C@@H]12` (stereo not given in full) yielded a selectivity ratio [1] of 18.6, an IC50 [2] of 0.39 µM and an IC50 (L6) of 7.2 µM.
In the case of `C=C1C(=O)O[C@@H]2/C=C(\C)CC/C=C(\C)C[C@@H](OC(=O)/C(=C/CO)CO)[C@@H]12`, the selectivity ratio [1] is reported as 11.1, the IC50 [2] is reported as 1.2 to 1.4 µM and the IC50 (L6) is reported as 15.5 µM.
Compound `COc1ccc(-c2cc(=O)c3c(O)c(OC)c(O)cc3o2)cc1` [PECTOLINARIGENIN] has a selectivity ratio [1] of 3.3, an IC50 [2] of 6.1 µM and an IC50 (L6) of 20.2 µM.

Reference: ChEMBL document CHEMBL4130586, “Antiprotozoal Sesquiterpene Lactones and Other Constituents from Tarchonanthus camphoratus and Schkuhria pinnata” (J Nat Prod, 2018)
